# Laboratory results taken from patent US20260055097A9, “NRF2 PROTEIN DEGRADERS” (Ganymede Oncology, Inc., priority 2022, published 2026).
# Where two headings read alike, the source gives them in different places.
# How the values were obtained:
# Format in all cases: cell-based
# A549 = test: Cancer cell viability, A549 (CellTiter-Glo); conditions: Homo sapiens, 72 h, A549 cells, 3 days, read-out: Cellular IC50 (μM) A549
# Description: Representative Compounds of the Disclosure were tested in A549 (Vendor: ATCC; Cat #CCL-185; Description: lung, carcinoma) and/or LK-2 (Vendor: Riken; Cat #RCB1970; Description: lung, squamous cell carcinoma) cellular viability assays according to the following general protocol. • 1. Observed the cells under microscope. • 2. Aspirated the media and added 5 mL trypsin and incubate for 3 mins. • 3. Added 10 mL fresh media and harvested all the cells in to 15 mL tubes. • 4. Centrifuged the cells at 1000 rpm for 5 mins. • 5. Re-suspended the cells with 11 mL media and took 1 mL to determine the cell number and viability. • 6. Prepared cells suspension at 20 K/mL (A549) or 35 K/mL (LK-2) • 7. Seeded the cells into 96-well plate and incubated for overnight. • 8. […] After 3 days, took out the plates from the incubator and observed the cells under microscope. • 10. Passed a film at the bottom of the plates. • 11. Equilibrated the plate and its contents at room temperature for approximately 30 minutes. • 12. Thawed the CellTiter-Glo® Buffer and equilibrated to room temperature prior to use. • 13. Equilibrated the lyophilized CellTiter-Glo® Substrate to room temperature prior to use. • 14. Transferred 100 ml of CellTiter-Glo® Buffer into the amber bottle containing CellTiter-Glo® Substrate to reconstituted the lyophilized enzyme/substrate mixture. • 15. Mixed by gently vortexing, swirling or inverting the contents to obtain a homogeneous solution. • 16. Added 100 μL CellTiter-Glo® Reagent into each well • 17. Mixed contents for 15 minutes on an orbital shaker to induce cell lysis. • 18. Recorded luminescence with EnSpire machine. • 19. Passed the raw data into the file and analyzed the data with XLfit software.
# LK-2 = test: Cancer cell viability, LK-2 (CellTiter-Glo); conditions: Homo sapiens, LK-2, 72 h, LK-2 cells, 3 days, read-out: Cellular IC50 (μM) LK-2
# Description: Representative Compounds of the Disclosure were tested in A549 (Vendor: ATCC; Cat #CCL-185; Description: lung, carcinoma) and/or LK-2 (Vendor: Riken; Cat #RCB1970; Description: lung, squamous cell carcinoma) cellular viability assays according to the following general protocol. • 1. Observed the cells under microscope. • 2. Aspirated the media and added 5 mL trypsin and incubate for 3 mins. • 3. Added 10 mL fresh media and harvested all the cells in to 15 mL tubes. • 4. Centrifuged the cells at 1000 rpm for 5 mins. • 5. Re-suspended the cells with 11 mL media and took 1 mL to determine the cell number and viability. • 6. Prepared cells suspension at 20 K/mL (A549) or 35 K/mL (LK-2) • 7. Seeded the cells into 96-well plate and incubated for overnight. • 8. Added compounds into each well with a HPD300 machine (nine three-fold dilutions typically starting at 30 µM final concentration) and incubated for 3 days. • 9. After 3 days, took out the plates from the incubator and observed the cells under microscope. • 10. Passed a film at the bottom of the plates. • 11. Equilibrated the plate and its contents at room temperature for approximately 30 minutes. • 12. Thawed the CellTiter-Glo® Buffer and equilibrated to room temperature prior to use. • 13. Equilibrated the lyophilized CellTiter-Glo® Substrate to room temperature prior to use. • 14. Transferred 100 ml of CellTiter-Glo® Buffer into the amber bottle containing CellTiter-Glo® Substrate to reconstituted the lyophilized enzyme/substrate mixture. • 15. Mixed by gently vortexing, swirling or inverting the contents to obtain a homogeneous solution. • 16. Added 100 μL CellTiter-Glo® Reagent into each well • 17. Mixed contents for 15 minutes on an orbital shaker to induce cell lysis. • 18. Recorded luminescence with EnSpire machine. • 19. Passed the raw data into the file and analyzed the data with XLfit software.
# Nrf2 = molecular target: T1, Nrf2 (Homo sapiens, UniProt Q16236); test: Nrf2 degradation in A549 HiBiT-Nrf2 cells, Nano-Glo HiBiT lytic detection (HiBiT readout); set-up: host or cells: A549 HiBiT-Nrf2 cells (engineered line bought from Promega)
# T1 sequence (Q16236 1-605): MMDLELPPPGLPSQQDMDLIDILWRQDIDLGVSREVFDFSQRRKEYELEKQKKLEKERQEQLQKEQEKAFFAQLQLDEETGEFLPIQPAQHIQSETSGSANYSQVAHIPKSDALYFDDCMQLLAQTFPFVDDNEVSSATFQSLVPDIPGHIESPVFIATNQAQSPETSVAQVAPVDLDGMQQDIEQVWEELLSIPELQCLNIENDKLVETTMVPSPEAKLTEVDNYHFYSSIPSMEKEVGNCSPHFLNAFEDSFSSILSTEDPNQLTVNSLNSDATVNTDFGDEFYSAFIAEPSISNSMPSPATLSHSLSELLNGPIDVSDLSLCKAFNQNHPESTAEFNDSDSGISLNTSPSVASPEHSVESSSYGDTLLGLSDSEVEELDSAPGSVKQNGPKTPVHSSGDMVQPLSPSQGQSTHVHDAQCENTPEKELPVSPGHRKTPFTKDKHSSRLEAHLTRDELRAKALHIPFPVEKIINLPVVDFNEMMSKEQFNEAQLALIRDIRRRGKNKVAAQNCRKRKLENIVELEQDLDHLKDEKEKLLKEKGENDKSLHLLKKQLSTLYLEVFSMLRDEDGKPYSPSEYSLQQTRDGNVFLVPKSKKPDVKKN
# Description: A549 HiBiT-Nrf2 cells (Promega, Cat. No. CS3023219) were seeded into 384-well plates at cell density of 5,000 cells/well in 40 μL of cell culture medium (Ham's F-12 Nutrient Mix supplemented with 10% FBS and 1% antibiotic-antimycotic).
# The next day, cells were treated with representative Compounds of the Disclosure and incubated for 6 h and 20 h at 37° C., 5% CO2. Staurosporine was used as a control.
# At the end of incubation Nrf2 degradation (HiBiT readout) and cell viability (CellTiter-Glo readout) were determined. For HiBiT readout, Nano-Glo HiBiT Reagent mix (Promega, Cat. No. N3050) was added to wells, plates were incubated 2 min on an orbital shaker and incubated at room temperature in the dark for additional 30 minutes. At the end of incubation luminescence was measured using ultrasensitive luminescence mode (Envision, Perkin Elmer).
# [1] = 20 h, read-out: DC50 (nM) at 20 h
# [2] = 6 h, read-out: DC50 (nM) at 6 h
IC50 (A549) [µM],IC50 (LK-2) [µM],DC50 (Nrf2; [1]) [nM],DC50 (Nrf2; [2]) [nM],Structure (SMILES)
11,2.5,,,"Cc1ccccc1C(=O)N1CCc2cc(-c3nc(NC(=O)Cc4cccc(OCCOCCOCCOc5ccc6c(c5)C(=O)N(C5CCC(=O)NC5=O)C6=O)c4)sc3C)ccc21 (centres unmarked) [Cpd. No. 19, 2-(3-(2-(2-(2-((2-(2,6-dioxopiperidin-3-yl)-1,3-dioxoisoindolin-5-yl)oxy)ethoxy)ethoxy)ethoxy)phenyl)-N-(5-methyl-4-(1-(2-methylbenzoyl)indolin-5-yl)thiazol-2-yl)acetamide]"
> 30,> 30,,,"Cc1ccccc1C(=O)N1CCc2cc(-c3nc(NC(=O)Cc4cccc(OCCOCCOCCNc5ccc6c(c5)C(=O)N(C5CCC(=O)NC5=O)C6=O)c4)sc3C)ccc21 (centres unmarked) [Cpd. No. 21, 2-(3-(2-(2-(2-((2-(2,6-dioxopiperidin-3-yl)-1,3-dioxoisoindolin-5-yl)amino)ethoxy)ethoxy)ethoxy)phenyl)-N-(5-methyl-4-(1-(2-methylbenzoyl)indolin-5-yl)thiazol-2-yl)acetamide]"
0.3,0.06,,,"Cc1sc(NC(=O)Cc2cccc(OCCOCCNc3ccc4c(c3)C(=O)N(C3CCC(=O)NC3=O)C4=O)c2)nc1-c1ccc2c(c1)CCN2C(=O)C1CC1 (centres unmarked) [Cpd. No. 22, N-(4-(1-(cyclopropanecarbonyl)indolin-5-yl)-5-methylthiazol-2-yl)-2-(3-(2-(2-((2-(2,6-dioxopiperidin-3-yl)-1,3-dioxoisoindolin-5-yl)amino)ethoxy)ethoxy)phenyl) acetamide]"
0.0077,,< 300,> 3000,"Cc1cnccc1C(=O)N1CCc2cc(-c3nc(NC(=O)Cc4cccc(OCCOCCNc5cccc6c5C(=O)N(C5CCC(=O)NC5=O)C6=O)c4)sc3C)ccc21 (centres unmarked) [Cpd. No. 77, 2-(3-(2-(2-((2-(2,6-dioxopiperidin-3-yl)-1,3-dioxoisoindolin-4-yl)amino)ethoxy)ethoxy)phenyl)-N-(5-methyl-4-(1-(3-methylisonicotinoyl)indolin-5-yl)thiazol-2-yl)acetamide]"
0.075,,,> 3000,"COc1ccncc1C(=O)N1CCc2cc(-c3nc(NC(=O)Cc4cccc(OCCOCCNc5cccc6c5C(=O)N(C5CCC(=O)NC5=O)C6=O)c4)sc3C)ccc21 (centres unmarked) [Cpd. No. 80, 2-(3-(2-(2-((2-(2,6-dioxopiperidin-3-yl)-1,3-dioxoisoindolin-4-yl)amino)ethoxy)ethoxy)phenyl)-N-(4-(1-(4-methoxynicotinoyl)indolin-5-yl)-5-methylthiazol-2-yl)acetamide]"

# The next lines start with the compound.
Structure (SMILES),IC50 (A549) [µM],IC50 (LK-2) [µM],DC50 (Nrf2; [1]) [nM],DC50 (Nrf2; [2]) [nM]
"Cc1ccccc1C(=O)N1CCc2cc(-c3nc(NC(=O)Cc4cccc(OCCCNc5cccc6c5C(=O)N(C5CCC(=O)NC5=O)C6=O)c4)sc3C)ccc21 (centres unmarked) [Cpd. No. 6, 2-(3-(3-((2-(2,6-dioxopiperidin-3-yl)-1,3-dioxoisoindolin-4-yl)amino)propoxy)phenyl)-N-(5-methyl-4-(1-(2-methylbenzoyl)indolin-5-yl)thiazol-2-yl)acetamide]",> 30,> 30,,
"Cc1sc(NC(=O)Cc2cccc(OCCC3CCN(c4ccc5c(c4)C(=O)N(C4CCC(=O)NC4=O)C5=O)CC3)c2)nc1-c1ccc2c(c1)CCN2C(=O)C1CC1 (centres unmarked) [Cpd. No. 68, N-(4-(1-(cyclopropanecarbonyl)indolin-5-yl)-5-methylthiazol-2-yl)-2-(3-(2-(1-(2-(2,6-dioxopiperidin-3-yl)-1,3-dioxoisoindolin-5-yl)piperidin-4-yl)ethoxy)phenyl)acetamide]",> 30,,< 300,
"Cc1sc(NC(=O)Cc2cccc(OCCCCCNc3cccc4c3CN(C3CCC(=O)NC3=O)C4=O)c2)nc1-c1ccc2c(c1)CCN2C(=O)C1CC1 (centres unmarked) [Cpd. No. 69, N-(4-(1-(cyclopropanecarbonyl)indolin-5-yl)-5-methylthiazol-2-yl)-2-(3-((5-((2-(2,6-dioxopiperidin-3-yl)-1-oxoisoindolin-4-yl)amino)pentyl)oxy)phenyl)acetamide]",0.18,,< 300,< 300
"Cc1sc(NC(=O)Cc2cccc(OCCCCCCCCNc3cccc4c3C(=O)N(C3CCC(=O)NC3=O)C4=O)c2)nc1-c1ccc2c(c1)CCN2C(=O)C1CC1 (centres unmarked) [Cpd. No. 72, N-(4-(1-(cyclopropanecarbonyl)indolin-5-yl)-5-methylthiazol-2-yl)-2-(3-((8-((2-(2,6-dioxopiperidin-3-yl)-1,3-dioxoisoindolin-4-yl)amino)octyl)oxy)phenyl)acetamide]",0.23,,> 3000,
"Cc1ncccc1C(=O)N1CCc2cc(-c3nc(NC(=O)Cc4cccc(OCCOCCNc5cccc6c5C(=O)N(C5CCC(=O)NC5=O)C6=O)c4)sc3C)ccc21 (centres unmarked) [Cpd. No. 76, 2-(3-(2-(2-((2-(2,6-dioxopiperidin-3-yl)-1,3-dioxoisoindolin-4-yl)amino)ethoxy)ethoxy)phenyl)-N-(5-methyl-4-(1-(2-methylnicotinoyl)indolin-5-yl)thiazol-2-yl)acetamide]",0.011,,< 300,> 3000
"Cc1ccncc1C(=O)N1CCc2cc(-c3nc(NC(=O)Cc4cccc(OCCOCCNc5cccc6c5C(=O)N(C5CCC(=O)NC5=O)C6=O)c4)sc3C)ccc21 (centres unmarked) [Cpd. No. 78, 2-(3-(2-(2-((2-(2,6-dioxopiperidin-3-yl)-1,3-dioxoisoindolin-4-yl)amino)ethoxy)ethoxy)phenyl)-N-(5-methyl-4-(1-(4-methylnicotinoyl)indolin-5-yl)thiazol-2-yl)acetamide]",0.0059,,< 300,> 3000
"Cc1cccnc1C(=O)N1CCc2cc(-c3nc(NC(=O)Cc4cccc(OCCOCCNc5cccc6c5C(=O)N(C5CCC(=O)NC5=O)C6=O)c4)sc3C)ccc21 (centres unmarked) [Cpd. No. 79, 2-(3-(2-(2-((2-(2,6-dioxopiperidin-3-yl)-1,3-dioxoisoindolin-4-yl)amino)ethoxy)ethoxy)phenyl)-N-(5-methyl-4-(1-(3-methylpicolinoyl)indolin-5-yl)thiazol-2-yl)acetamide]",0.043,,< 300,> 3000
